In patent US9529005B2, “Modulating bacterial MAM polypeptides in pathogenic disease” (priority 2011, dated 2016):
Converted amounts (≈) assume the structure as drawn. Like-named read-outs stand apart in the source and are kept apart here.

Columns and labels:
Test in all cases: Antimicrobial susceptibility testing (MIC), BD Phoenix Automated Microbiology System; on interpretation of the result: key: R, resistant; I, intermediate; S, susceptible; R*: *As a rule, when ESBL is detected, an interpretation of susceptible or intermediate for penicillins, cephalosporins and aztreonam is reported as resistant
Type in all cases: cell-based
[1] = test system: Escherichia coli; conditions: for MIC: Escherichia coli; on interpretation of the result: key: R, resistant; I, intermediate; S, susceptible; R*: *As a rule, when ESBL is detected, an interpretation of susceptible or intermediate for penicillins, cephalosporins and aztreonam is reported as resistant
From the text: (§1) The inventors performed antimicrobial susceptibility testing (AST) by determining the minimal inhibiting concentration (MIC) of a panel of antimicrobials on all twenty bacterial isolates using the BD Phoenix Automated Microbiology System (Table 3). Antimicrobial panels included several drugs from each of the four most commonly used classes of antimicrobials, aminoglycosides, β-lactams, carbapenems and fluoroquinolones. The panels also included antimicrobials from other classes, such as trimethoprim/sulfamethoxazole, but resistance to these was not considered in the classification of isolates as multidrug-resistant.

[2] = test system: Klebsiella ssp.; conditions: for MIC: Klebsiella; on interpretation of the result: key: R, resistant; I, intermediate; S, susceptible; R*: *As a rule, when ESBL is detected, an interpretation of susceptible or intermediate for penicillins, cephalosporins and aztreonam is reported as resistant
From the text: as §1

[3] = test system: Pseudomonas aeruginosa; conditions: for MIC: Pseudomonas aeruginosa; on interpretation of the result: key: R, resistant; I, intermediate; S, susceptible; R*: *As a rule, when ESBL is detected, an interpretation of susceptible or intermediate for penicillins, cephalosporins and aztreonam is reported as resistant
From the text: as §1

[4] = read-out: minimal inhibiting concentration, Escherichia coli isolate 1
[5] = read-out: minimal inhibiting concentration, Escherichia coli isolate 2
[6] = read-out: minimal inhibiting concentration, Escherichia coli isolate 3
[7] = read-out: minimal inhibiting concentration, Escherichia coli isolate 4
[8] = read-out: minimal inhibiting concentration, Escherichia coli isolate 5
[9] = read-out: minimal inhibiting concentration, Klebsiella ssp. isolate 2
[10] = read-out: minimal inhibiting concentration, Klebsiella ssp. isolate 3
[11] = read-out: minimal inhibiting concentration, Klebsiella ssp. isolate 4
[12] = Pseudomonas aeruginosa isolate 1
[13] = Pseudomonas aeruginosa isolate 2
[14] = Pseudomonas aeruginosa isolate 3
[15] = Pseudomonas aeruginosa isolate 4
[16] = Pseudomonas aeruginosa isolate 5
[17] = read-out: minimal inhibiting concentration, Pseudomonas aeruginosa isolate 1
[18] = read-out: minimal inhibiting concentration, Pseudomonas aeruginosa isolate 2
[19] = read-out: minimal inhibiting concentration, Pseudomonas aeruginosa isolate 3
[20] = read-out: minimal inhibiting concentration, Pseudomonas aeruginosa isolate 4
[21] = read-out: minimal inhibiting concentration, Pseudomonas aeruginosa isolate 5

In the case of `CO[C@@]1(NC(=O)Cc2cccs2)C(=O)N2C(C(=O)O)=C(COC(N)=O)CS[C@@H]21` [Cx., Cefoxitin], the “interpretation of the result” value ([1]; Escherichia coli isolate 1) is reported as “S”, the “interpretation of the result” value ([1]; Escherichia coli isolate 2) is reported as “S” and the “interpretation of the result” value ([1]; Escherichia coli isolate 3) is reported as “S”. The “interpretation of the result” value ([1]; Escherichia coli isolate 4) was “R”, the “interpretation of the result” value ([1]; Escherichia coli isolate 5) was “S” and the MIC [1, 4] was 8 µg/mL (≈ 18.7 µM). The MIC [1, 5] was ≤ 4 µg/mL, the MIC [1, 6] was 8 µg/mL (≈ 18.7 µM) and the MIC [1, 7] was > 16 µg/mL. The MIC [1, 8] was 8 µg/mL (≈ 18.7 µM), the “interpretation of the result” value ([2]; Klebsiella ssp. isolate 2) was “S” and the “interpretation of the result” value ([2]; Klebsiella ssp. isolate 3) was “R”. The “interpretation of the result” value ([2]; Klebsiella ssp. isolate 4) was “S”, the MIC [2, 9] was ≤ 4 µg/mL and the MIC [2, 10] was > 16 µg/mL. For the same molecule, the MIC [2, 11] was 8 µg/mL (≈ 18.7 µM), the “interpretation of the result” value [3, 12] was “R” and the “interpretation of the result” value [3, 13] was “R”. The “interpretation of the result” value [3, 14] was “R”, the “interpretation of the result” value [3, 15] was “R” and the “interpretation of the result” value [3, 16] was “R”. For the same molecule, the MIC [3, 17] was > 16 µg/mL, the MIC [3, 18] was > 16 µg/mL and the MIC [3, 19] was > 16 µg/mL. The MIC [3, 20] was > 16 µg/mL and the MIC [3, 21] was > 16 µg/mL.
With `Cc1nnc(SCC2=C(C(=O)O)N3C(=O)[C@@H](NC(=O)Cn4cnnn4)[C@H]3SC2)s1` [Cefa., Cefazolin] the “interpretation of the result” value ([1]; Escherichia coli isolate 1) was “R”, the “interpretation of the result” value ([1]; Escherichia coli isolate 2) was “R” and the “interpretation of the result” value ([1]; Escherichia coli isolate 3) was “R”. For the same molecule, the “interpretation of the result” value ([1]; Escherichia coli isolate 4) was “R”, the “interpretation of the result” value ([1]; Escherichia coli isolate 5) was “R” and the MIC [1, 4] was > 16 µg/mL. For the same molecule, the MIC [1, 5] was > 16 µg/mL, the MIC [1, 6] was > 16 µg/mL and the MIC [1, 7] was > 16 µg/mL. The MIC [1, 8] was > 16 µg/mL, the “interpretation of the result” value ([2]; Klebsiella ssp. isolate 2) was “R” and the “interpretation of the result” value ([2]; Klebsiella ssp. isolate 3) was “R”. The “interpretation of the result” value ([2]; Klebsiella ssp. isolate 4) was “R”, the MIC [2, 9] was > 16 µg/mL and the MIC [2, 10] was > 16 µg/mL. The MIC [2, 11] was > 16 µg/mL, the “interpretation of the result” value [3, 12] was “R” and the “interpretation of the result” value [3, 13] was “R”. For the same molecule, the “interpretation of the result” value [3, 14] was “R”, the “interpretation of the result” value [3, 15] was “R” and the “interpretation of the result” value [3, 16] was “R”. For the same molecule, the MIC [3, 17] was > 16 µg/mL, the MIC [3, 18] was > 16 µg/mL and the MIC [3, 19] was > 16 µg/mL. For the same molecule, the MIC [3, 20] was > 16 µg/mL and the MIC [3, 21] was > 16 µg/mL.
In the case of Piperacillin-Tazobactam [PipT.], the “interpretation of the result” value ([1]; Escherichia coli isolate 1) is reported as “I”, the minimal inhibiting concentration ([1]; Escherichia coli isolate 1) is reported as 32/4 and the “interpretation of the result” value ([1]; Escherichia coli isolate 2) is reported as “S”. For the same molecule, the minimal inhibiting concentration ([1]; Escherichia coli isolate 2) was 2/4, the “interpretation of the result” value ([1]; Escherichia coli isolate 3) was “I” and the minimal inhibiting concentration ([1]; Escherichia coli isolate 3) was 32/4. For the same molecule, the “interpretation of the result” value ([1]; Escherichia coli isolate 4) was “I”, the minimal inhibiting concentration ([1]; Escherichia coli isolate 4) was 16/4 and the “interpretation of the result” value ([1]; Escherichia coli isolate 5) was “I”. The minimal inhibiting concentration ([1]; Escherichia coli isolate 5) was 32/4, the “interpretation of the result” value ([2]; Klebsiella ssp. isolate 2) was “I” and the minimal inhibiting concentration ([2]; Klebsiella ssp. isolate 2) was 32/4. The “interpretation of the result” value ([2]; Klebsiella ssp. isolate 3) was “S”, the minimal inhibiting concentration ([2]; Klebsiella ssp. isolate 3) was 16/4 and the “interpretation of the result” value ([2]; Klebsiella ssp. isolate 4) was “R”. The minimal inhibiting concentration ([2]; Klebsiella ssp. isolate 4) was 64/4, the “interpretation of the result” value [3, 12] was “R” and the minimal inhibiting concentration [3, 12] was 64/4. The “interpretation of the result” value [3, 13] was “R”, the minimal inhibiting concentration [3, 13] was 64/4 and the “interpretation of the result” value [3, 14] was “R”. For the same molecule, the minimal inhibiting concentration [3, 14] was 64/4, the “interpretation of the result” value [3, 15] was “S” and the minimal inhibiting concentration [3, 15] was 32/4. For the same molecule, the “interpretation of the result” value [3, 16] was “R” and the minimal inhibiting concentration [3, 16] was 64/4.
`CO/N=C(\C(=O)N[C@@H]1C(=O)N2C(C(=O)O)=C(CSc3nc(=O)c(=O)[nH]n3C)CS[C@H]12)c1csc(N)n1` [Co., Ceftriaxone] was tested, and the “interpretation of the result” value ([1]; Escherichia coli isolate 1) was “R”, the “interpretation of the result” value ([1]; Escherichia coli isolate 2) was “R” and the “interpretation of the result” value ([1]; Escherichia coli isolate 3) was “R”. For the same molecule, the “interpretation of the result” value ([1]; Escherichia coli isolate 4) was “R”, the “interpretation of the result” value ([1]; Escherichia coli isolate 5) was “R” and the MIC [1, 4] was > 32 µg/mL. The MIC [1, 5] was > 32 µg/mL, the MIC [1, 6] was > 32 µg/mL and the MIC [1, 7] was > 32 µg/mL. For the same molecule, the MIC [1, 8] was > 32 µg/mL, the “interpretation of the result” value ([2]; Klebsiella ssp. isolate 2) was “R” and the “interpretation of the result” value ([2]; Klebsiella ssp. isolate 3) was “R”. For the same molecule, the “interpretation of the result” value ([2]; Klebsiella ssp. isolate 4) was “R”, the MIC [2, 9] was > 32 µg/mL and the MIC [2, 10] was 16 µg/mL (≈ 28.9 µM). The MIC [2, 11] was > 32 µg/mL, the “interpretation of the result” value [3, 12] was “R” and the “interpretation of the result” value [3, 13] was “R”. The “interpretation of the result” value [3, 14] was “R”, the “interpretation of the result” value [3, 15] was “R” and the “interpretation of the result” value [3, 16] was “R”. The MIC [3, 17] was > 32 µg/mL, the MIC [3, 18] was > 32 µg/mL and the MIC [3, 19] was > 32 µg/mL. For the same molecule, the MIC [3, 20] was > 32 µg/mL and the MIC [3, 21] was > 32 µg/mL.
